Settings: in water

C=CCC
Settings | solubility (mole fraction)
293.15 K | 9.53e-05
295.15 K | 8.78e-05
298.15 K | 7.97e-05
300.15 K | 7.44e-05
303.15 K | 6.77e-05
305.15 K | 6.42e-05
308.15 K | 5.96e-05
310.15 K | 5.56e-05
313.15 K | 5.24e-05
315.15 K | 4.9e-05
318.15 K | 4.63e-05
320.15 K | 4.42e-05
323.15 K | 4.12e-05
